Measured values as given in paper PMC11547840, “The Intestinal Barrier Protective Effect of Indole Aldehyde Derivatives on Acute Toxoplasma gondii Infection” (Molecules, 2024).
Entries after “also recorded” stand apart in the source; their conditions may differ. Where two headings read alike, the source gives them in different places.

Key:
[1] = tested on: small intestine of mice with T. gondii infection; assay: Small intestine and serum biochemical parameters (GSH, MDA, NO, DAO) of T. gondii-infected mice; assay type: in vivo; conditions: 100 mg/kg oral once a day for 6 days
Description: (§1) For the in vivo study, KM female mice were divided into groups consisting of six animals each and then intraperitoneally injected with 2 × 10^3 tachyzoites. […] On the last day, heart blood samples were collected after anesthesia to separate the serum, and after mice were sacrificed by cervical dislocation, mice were dissected to obtain organs and tissues. The tachyzoites were harvested from mice peritoneal cavities to determine the level of tachyzoite proliferation. The peritoneal fluid was collected twice; the first time, it was centrifuged at 500 rpm for 10 min, then the supernatant was centrifuged at 2500 rpm for 20 min, discarded, and the worm precipitate was collected at the bottom, and mixed with an appropriate amount of physiological saline. A total of 10 μL of T. gondii suspension was mixed with 10 μL of 4% Trypan blue staining solution in a 1.5 mL centrifuge tube.
The GSH was measured according to the method in [58]. The intestine homogenate was mixed with half volume trichloroacetic acid (20%, w/v) and centrifuged at 4000 rpm for 10 min. Then, phosphate buffer (phosphate 0.3 mol/L, pH 7.5) and 5,5-dithio-bis-(2-nitrobenzoic acid) (0.04%, w/v) were added to the separated supernatant and mixed thoroughly. After 5 min at room temperature, the absorbance was measured at 412 nm.
MDA was measured by the standard method with minor modifications. The small intestine homogenate supernatant was mixed with thiobarbituric acid (0.5%, w/v) and heated in boiling water bath for 1 h, then cooled quickly and centrifuged at 6000 rpm for 10 min; the absorbance of pink colored supernatant was measured at 532 nm. Tetraethoxypropane replaced the intestine homogenate in the standard sample.
(§2) The Greiss method was used to determine the NO content in small intestine tissues and cells. The above small intestine tissue homogenate or IEC-6 cell supernatant was centrifuged at 4 °C and 1500 rpm for 15 min, and the absorbance was measured at 540 nm by adding equal amounts of Griess A and B reagents to the supernatant. The standard used in the NO standard curve was sodium nitrite, and the NO content in the samples was calculated by substituting the absorbance values of the samples into the regression equation of the standard curve.
The DAO evaluation experimental method of Xin Y et al. was adopted, in which mouse heart blood was taken from a 1.5 mL centrifuge tube and centrifuged at 4 °C and 3000× g for 10 min, and the upper layer of serum was taken for measurement. Another 1.5 mL tube was taken and 600 μL of phosphate buffer, 20 μL of horseradish peroxidase, 20 μL of dianisidine dihydrochloride hydrochloride, and 20 μL of 1,5-pentanediamine hydrochloride were added. After that, 100 μL of serum samples to be tested was added, mixed well and heated at 37 °C for 18 h. The absorbance was measured at 436 nm. […]. A total of 100 μL of distilled water was used in the blank tube instead of serum, and the standard used in the standard curve was diamine oxidase. The absorbance value of the experimental samples was substituted into the regression equation of the standard curve to calculate the content of DAO in the serum samples.

[2] = tested on: IEC-6 cells with T. gondii infection; assay: NO level of T. gondii-infected IEC-6 cells (Griess); assay type: cell-based; conditions: Griess method, cell supernatant; compared with Toxo group
Protocol: as §2

IEC-6 cells = assay: MTT cytotoxicity assay in IEC-6 cells; assay type: cell-based; conditions: Rattus norvegicus, read-out: IC50 in IEC-6 Cells
Protocol: (§3) Anti-T. gondii activity and cytotoxicity of indole derivatives in vitro were evaluated by MTT assay (Solarbio, Beijing, China) using a slightly modified version of the procedure of Shang et al.. IEC-6 cells were seeded onto the 96-well plates (2 × 10^3/well) for 24 h to obtain the full monolayer, and then the host cells were infected with T. gondii (parasite: cell = 3:1) in complete medium. After 24 h, cells were washed to remove any extra parasites and then incubated with different concentrations (20, 200, 500 and 1000 μm) of […]. […] After 24 h of treatment, MTT solution was added directly to the culture wells and then incubated for 4 h at 37 °C. The optical absorbance was measured at a wavelength of 548 nm using a microplate reader (SpectraMax M2, Molecular Devices, Sunnyvale, CA, USA). Giemsa staining was used to observe the changes in cell morphology and the proliferation of T. gondii-infected cells. IEC-6 (1 × 10^5 cells/well) was inoculated into 24-well plates containing round coverslip, and after the cells were attached to the wall, T. gondii (3 × 10^5 cells/well) was added to infect the cells for 3 h. After the culture medium was discarded, PBS was added to remove the uninvaded tachyzoites. […] After discarding the supernatant, the cells were washed with PBS and completely aspirated, and then fixed by adding 0.5 mL of methanol for 3 min. Giemsa staining solution was added and shaken slightly to make the staining uniform. Coverslips were rinsed with distilled water to replace the staining solution, and finally, the slices were sealed with neutral gum and air-dried.

[3] = Small intestine histology and pathology scoring of T. gondii-infected mice; assay type: in vivo; conditions: 100 mg/kg oral once a day for 6 days
Description: as §1
The histology research includes apparent pathological change score, H&E staining and histopathological scores of tissue, as shown in Table 4 and Table 5. In detail, the obtained small intestine tissues were fixed in formalin solution and embedded in paraffin wax after gradual dehydration with different concentrations of ethanol. The paraffin fast was sectioned to a thickness of 5 μm, rehydrated and stained with hematoxylin and eosin, respectively, and finally permeabilized with xylene and sealed with neutral gum. A light microscope was used to observe and collect pictures, and the degree of damage to the small intestinal tissues was assessed according to Chiu’s six-grade scale.

T. gondii [4] = assay: Giemsa staining: cell infection rate and intracellular tachyzoites in IEC-6 cells; assay type: cell-based, Toxoplasma gondii; conditions: IEC-6 cells infected 3 h, drug 12 h at the IC50 value of the cells; for cell infection rate: Toxo group 49.2%; for number of intracellular tachyzoites: Toxo group 254
Protocol: as §3

T. gondii [5] = assay: MTT anti-T. gondii activity in T. gondii-infected IEC-6 cells; assay type: cell-based, Toxoplasma gondii; conditions: for Selective Index (SI): IC50 in IEC-6 cells/IC50 in T. gondii-infected IEC-6 cells; for IC50: Toxoplasma gondii, read-out: IC50 in T. gondii
Protocol: as §3

T. gondii [6] = assay: In vivo anti-T. gondii activity, peritoneal tachyzoite count by Trypan Blue; parameters: species or system Toxoplasma gondii; conditions: 100 mg/kg oral once a day for 6 days; for Number of Tachyzoites: peritoneal cavity of KM female mice, i.p. 2 × 10^3 tachyzoites, Toxo 12.28 ± 0.39; for Inhibition Rate: mice peritoneal T. gondii, (untreated group − treated group)/untreated group × 100%
Description: as §1

[7] = Small intestine function of T. gondii-infected mice (weight, food utilization, carmine excretion); assay type: in vivo; conditions: 100 mg/kg oral once a day for 6 days
Protocol: On the last day, heart blood samples were collected after anesthesia to separate the serum, and after mice were sacrificed by cervical dislocation, mice were dissected to obtain organs and tissues. The tachyzoites were harvested from mice peritoneal cavities to determine the level of tachyzoite proliferation. The peritoneal fluid was collected twice; the first time, it was centrifuged at 500 rpm for 10 min, then the supernatant was centrifuged at 2500 rpm for 20 min, discarded, and the worm precipitate was collected at the bottom, and mixed with an appropriate amount of physiological saline. […] Mouse food intake and body weight were recorded daily for six days during the experiment and were used to record growth performance data. At the end of the experiment, body weight gain, food intake and food utilization of mice were calculated as Equation (1). […] A solution containing 3% carmine dye and 0.5% carboxymethyl cellulose was prepared. On the fifth day of T. gondii infection, each mouse was transferred to a separate cage, with the bottom of the cage completely covered with white paper to facilitate the detection of cochineal in the feces after red feces were eliminated. […] During the experimental period, the mice were free to move around, and eat and drink freely without any external interference, as described.

[8] = MTT, concentration required to reduce IEC-6 cell growth by 50%, 24 h treatment
[9] = MTT, concentration required to reduce T. gondii-infected IEC-6 cell growth by 50%, 24 h treatment

Compound	DAO level in serum [1]	MDA level in small intestine tissue [1]	NO level in small intestine tissue [1]	NO level of IEC-6 cells with T. gondii infection [2]	IC50 (IEC-6 cells; [8])	intestinal barrier damage induced by T. gondii infection (histology, H&E) [3]	cell infection rate (T. gondii [4])	Selective Index (SI) (T. gondii [5])	IC50 (T. gondii [5]; [9])	Number of Tachyzoites (T. gondii [6])	IC50 (IEC-6 cells; IEC-6, 24 h)	IC50 (T. gondii [5]; IEC-6, 24 h)	GSH level in small intestine tissue [1]	apparent pathological damage score (intestine apparent pathology scoring) [3]	number of intracellular tachyzoites (T. gondii [4])	Inhibition Rate (T. gondii [6])	MDA level in small intestine tissue ([1]; 100 mg/kg)	NO level in small intestine tissue ([1]; 100 mg/kg)	food utilization efficiency of mice with T. gondii infection [7]	weight increment of mice with T. gondii infection [7]
N#CCc1cn(C=O)c2ccccc12 [A1, 1-Formyl-1H-indole-3-acetonitrile]	mitigate the elevated levels	surpassed that of the positive control drug, Spy	mitigate the elevated levels	significantly decreased the release of intracellular nitric oxide	417 µM	demonstrate potential in ameliorating intestinal barrier damage	26.0%	1.2	342 µM	8.17 ± 0.84 ×10^6										
NCCc1cn(C=O)c2ccccc12 [A2, 1-Formyl-1H-indole-3-ethanamine]											> 1000 µM	> 1000 µM								
O=Cc1c[nH]c2ccccc12 [A3, Indole-3-carboxaldehyde]	more significant	effective inhibition of the MDA increase	less pronounced compared to the other derivatives	lowest NO release levels; also recorded: significantly decreased the release of intracellular nitric oxide	869.2 ± 4 µM	most effective, surpassing the control drug Spy in efficacy	15.0%	1.3	675 ± 8.3 µM	8.22 ± 1.49 ×10^6			significantly higher than that observed with the positive control drug, Spy	significantly lower apparent pathological damage score compared to Spy	more effective than Spy	33.3%				
O=Cc1c[nH]c2ncc(Br)cc12 [A4, 5-bromo-1H-pyrrolo[2,3-b] pyridine-3-carbaldehyde]					960.3 ± 2.5 µM			1.0	995.7 ± 4.9 µM											
O=Cc1c(Cl)[nH]c2ccccc12 [A5, 2-Chloro-1H-indole-3-carbaldehyde]	mitigate the elevated levels	effective inhibition of the MDA increase	mitigate the elevated levels	significantly decreased the release of intracellular nitric oxide	602 ± 9.9 µM	demonstrate potential in ameliorating intestinal barrier damage	20.3%	1.1	564 ± 6.9 µM	9.56 ± 0.92 ×10^6					more effective than Spy	22.2%				
COC(=O)c1cn(C=O)c2ccccc12 [A6, 1-formyl-1H-indole-3-carboxylic acid methyl ester]								0.9			633 ± 9.8 µM	742 ± 10.5 µM								
Clc1cc2ccccc2[nH]1 [A7, 2-Chloro-1H-indole]					283.7 ± 2.6 µM			1.0	287 ± 6.1 µM											
Cn1cc(C=O)c2ccccc21 [A8, 1-Methyl-indole-3-carbaldehyde]	mitigate the elevated levels			significantly decreased the release of intracellular nitric oxide	650 ± 7.9 µM	demonstrate potential in ameliorating intestinal barrier damage	20.5%	1.1	571 ± 7.4 µM	8.92 ± 0.51 ×10^6					more effective than Spy		effective inhibition of the MDA increase; also recorded: slightly outperformed A9	mitigate the elevated levels; also recorded: slightly outperformed A9		
Cn1c(-c2ccccc2)c(C=O)c2ccccc21 [A9, 1-Methyl-2-phenylindole-3-carbaldehyde]		effective inhibition of the MDA increase	mitigate the elevated levels	lowest NO release levels; also recorded: significantly decreased the release of intracellular nitric oxide	408.4 ± 3.5 µM	demonstrate potential in ameliorating intestinal barrier damage	18.0%	1.1	366 ± 8.8 µM	8.83 ± 0.39 ×10^6					more effective than Spy	28.1%			enhanced food utilization efficiency	did not affect this parameter, except for derivative A9
c1ccc2[nH]ccc2c1 [Indole, indole]							32.2%	1.0		10.33 ± 2.84 ×10^6	939.6 ± 5.4 µM	921.2 ± 5 µM								
